# Measurements published in EP0605261B1, “Use of a flavone derivative as taste modifier and a method of modifying taste” (SAN-EI GEN F.F.I., INC., priority 1992, dated 1994).
# Experiments:
# Type in all cases: in vivo
# [1] = Sensory test (limiting method): enhancing the sourness of acid sugar solution; set-up: key: (equivalent citric acid content / citric acid content with flavone) × 100; conditions: citric acid 1.000 (g), flavone derivative (I) 0.00001 (g), 8 panellers; for Value of enhancing the sourness Ascending system: ascending system (from low concentration); for Value of enhancing the sourness Descending system: descending system (from high concentration)
# Procedure: Compounds 1 to 11 of the flavone derivative (I) were used as a taste modifier to prepare acid sugar solution having compositions as follows:
# As a control, 21 types of acid sugar solutions are used. In the control, the flavone derivative (I) is removed from the above composition and the content of citric acid is varied from 1.000 g to 1.500 g by 0.025 g.
# Sensory tests were carried out by 8 trained panellers in accordance with a limiting method described in the Hand Book of Sensory evaluation, edited by Research Committee of sensory evaluation, Union of Japanese Scientists and Engineers, p.398 (1973) in use of acid sugar solutions containing respective flavone derivatives (I) and another acid sugar solutions having a various content of citric acid.
# As for the content of citric acid, two types sensory tests were conducted, one was an ascending system (testing from solution with low concentration) and another was a descending system (testing from solution with high concentration).
# The sensory evaluation was made by a value of enhancing the sourness. The value of enhancing the sourness was calculated by the following formula based on the content of citric acid in acid sugar solutions with varied concentration of citric acid, which has an equivalent stimulation with an acid sugar solution containing the flavone derivative (I) Value of enhancing the sourness = (content of citric acid in acid sugar solution sensed as an equivalent stimulation/content of citric acid in acid sugar solution containing the flavone derivative (I)) x 100 [formula]
# [2] = Sensory test: refreshness, its continuity and quality of taste (refreshing drink); conditions: 0.2 g flavor composition H (0.000001(g) Compound 11) vs G, 8 panellers
# Procedure: Compound 11 of the flavone derivative (I) was used as a taste modifier. Refreshing drink containing the above flavor composition G (control) or H (containing the flavone derivative (I)) was prepared.
# First, 10 g of fructose/glucose sugar solution, 0.1 g of citric acid (crystal), 0.2 g of the flavor composition G and 88.5 g of water were mixed to dissolve, followed by heating up to 93 °C, immediately transmitted to a bottle and sealed. Then, it was cooled in water, thereby preparing flavone derivative (I) free refreshing drink.
# Alternatively, flavone derivative (I)-containing refreshing drink was prepared by the same method using the flavor composition H instead of the flavor composition G.
# Sensory tests for obtained refreshing drink were carried out by 8 panellers comprised of 6 males and 2 females at the age from 20 to 40.
# [3] = Sensory test: body and deliciousness (casing boiled fish paste); conditions: 0.0001 (g) Compound 11, 8 panellers
# Procedure: Compound 11 of the flavone derivative (I) was used as a taste modifier. Ground fish meat, salt, starch, water and the flavone derivative (I) were mixed. In accordance with a general method, casing boiled fish paste containing the flavone derivative (I) was prepared. Alternatively, flavone derivative (I) free casing boiled fish paste was prepared by the same method as a control.
# Sensory tests for obtained casing boiled fish paste were conducted by 8 panellers comprised of 6 males and 2 females at the age from 20 to 40.
# [4] = Sensory test: sweetness and savor (ice cream); conditions: 0.00001 w/w%, 10 panellers
# Procedure: Compound 2 of the flavone derivative (I) was used as a taste modifier. Ice cream containing 5 w/w% of sugar, 12 w/w% of fructose condensed milk and 10 w/w% of thick malt syrup as sweetening agents was used as a control. The control and ice cream containing 0.00001 w/w% of the flavone derivative (I) were made by a general method. Sensory tests for the sweetness and the savor were conducted by 10 trained panellers comprised of 6 males and 4 females at the age from 20 to 40.
# [5] = Sensory test: stimulative smell associated with acetic acid and viscosity (toothpaste with karaya gum); conditions: 0.0000001 part by weight of Compound 3 to 1 part, 9 panellers
# Procedure: Sorbitol was heated to 70°C, followed by adding sodium saccharine and silica slowly thereto and by stirring well. Then, water previously heated to 70°C, karaya gum, sodium lauryl sulfate and sodium hydroxide were added sequentially while stirring. Finally, flavor was added thereto to prepare toothpaste as a control. Alternatively, flavone derivative (I)-containing toothpaste was prepared by adding 0.0000001 part by weight of Compound 3 of the flavone derivative (I) to 1 part by weight of similarly prepared toothpaste.
# Sensory tests for obtained toothpaste were conducted by 9 panellers comprised of 6 males and 3 females.
# [6] = Five points evaluation test: saltiness and brackish taste modifying effect, salt / sodium L-glutamate solution; conditions: average points of 5 panellers (2: no changes); for Saltiness Modifying Effect: Salt
# Procedure: Compound 3 of the flavone derivative (I) was used as a taste modifier. […] Alternatively, sample solutions were prepared by adding 1, 0.1, 0.01 ppm of Compound 3 to the standard solutions, respectively.
# Sensory tests were conducted by 5 trained panellers to examine saltiness modifying effect (so called saltiness adapting effect) and brackish taste modifying effect.
# (§1) Each sample solution was evaluated assuming that the standard solution has the point of 2.
# [7] = Sensory test: enhancing the sourness (refreshing drink); conditions: 0.0002 (g) Compound 4, vs control, 8 panellers
# Procedure: Compound 4 of the flavone derivative (I) was used as a taste modifier. Raw materials described below were mixed and stirred to dissolve. The solution was heated up to 93°C, immediately transmitted to a bottle and sealed. Then, it was cooled in water, thereby preparing refreshing drink having compositions as follows. A control was prepared by eliminating the compound 4 from the raw materials.
# Sensory tests of obtained refreshing drink were carried out by 8 panellers.
# [8] = Sensory test: sweetness and savor (sponge cake); conditions: 22 w/w% white sugar, 0.0001 w/w%, 10 panellers
# Procedure: Compound 4 of the flavone derivative (I) was used as a taste modifier and 22 w/w% of white sugar was used as a sweetening agent. In accordance with a general method, sponge cake containing 0.0001 w/w% of the flavone derivative (I) and flavone derivative (I) free sponge cake were prepared. Sensory tests for the sweetness and the savor were conducted by 10 panellers comprised of 6 males and 4 females at the age from 20 to 40.
# [9] = Five points evaluation test: saltiness and savor modifying effect (toothpaste containing salt); conditions: average points of 5 panellers (2: no changes)
# Procedure: Compound 7 of the flavone derivative (I) was used as a taste modifier. To commercially available toothpaste (containing salt), the flavone derivative (I) was added in the amount of 1, 0.1 and 0.01 ppm respectively to prepare samples. Sensory tests were carried out for modifying effects of the saltiness and the savor of toothpaste. Flavone derivative (I) free toothpaste was used as a standard substance.
# The sensory tests were conducted by 5 trained panellers to examine saltiness modifying effect (so called saltiness adapting effect) and savor modifying effect.
# as §1
# [10] = Sensory test: savor (boiled fish paste); conditions: 1.5 w/w% glycine, 0.0001 w/w%, 10 panellers
# Procedure: Compound 7 of the flavone derivative (I) was used as a taste modifier. In accordance with a general method, boiled fish paste containing 0.0001 w/w% of the flavone derivative (I) and flavone derivative (I) free boiled fish paste were prepared in use of 1.5 w/w% glycine. Sensory tests for the savor were conducted by 10 panellers comprised of 6 males and 4 females at the age from 20 to 40.
# [11] = Sensory test: stimulative smell associated with acetic acid (mayonnaise); conditions: 0.001 mg of Compound 8 added, 9 panellers
# Procedure: Compound 8 of the flavone derivative (I) was used as a taste modifier. First, sugar, sodium glutamate and carrageenan were dissolved in water, followed by adding raw vinegar, salt and yolk. Then, corn salad oil was added portionwise while stirring, and emulsified by the use of colloid mill, thereby preparing mayonnaise as a control. Alternatively, flavone derivative (I)-containing mayonnaise was prepared by adding 0.001 mg of Compound 8 to mayonnaise that was similarly prepared.
# Sensory tests for obtained mayonnaise were conducted by 9 panellers comprised of 6 males and 3 females.
compound,measurement,setting,value
"3,3',4',5,5',6,7,8-octamethoxyflavone [Compound 11]",Value of enhancing the sourness Ascending system,[1],125
same,Value of enhancing the sourness Descending system,[1],128
same,Continuity of refreshness: Those who sensed H additive is better,[2],8 number of people
same,Continuity of refreshness: Those who sensed no difference,[2],0 number of people
same,Quality of taste: Those who sensed H additive is better,[2],6 number of people
same,Quality of taste: Those who sensed no difference,[2],2 number of people
same,Refreshness: Those who sensed H additive is better,[2],7 number of people
same,Refreshness: Those who sensed no difference,[2],1 number of people
same,Body: Those who sensed no difference,[3],2 number of people
same,Body: Those who sensed the flavone derivative (I) additive is better,[3],6 number of people
same,Deliciousness: Those who sensed no difference,[3],1 number of people
same,Deliciousness: Those who sensed the flavone derivative (I) additive is better,[3],7 number of people
same,Quality of taste: Those who sensed no difference,[3],1 number of people
same,Quality of taste: Those who sensed the flavone derivative (I) additive is better,[3],7 number of people
"COc1ccc(-c2cc(=O)c3c(OC)c(OC)c(OC)c(OC)c3o2)cc1OC [Compound 2, 3',4',5,6,7,8-hexamethoxyflavone]",Value of enhancing the sourness Ascending system,[1],118
same,Value of enhancing the sourness Descending system,[1],123
same,"the sweetness and the savor, as sensed by all the panellers",[4],better than that of the control
"COc1ccc(-c2cc(=O)c3c(OC)c(OC)c(OC)c(OC)c3o2)cc1 [Compound 3, 4',5,6,7,8-pentamethoxyflavone]",Value of enhancing the sourness Ascending system,[1],120
same,Value of enhancing the sourness Descending system,[1],123
same,Stimulative smell: Those who sensed no difference,[5],1 number of people
same,Stimulative smell: Those who sensed the flavone derivative (I) additive is reduced,[5],8 number of people
same,Brackish Taste Modifying Effect,"[6]; 0.01 ppm, Salt 1 %",3.6
same,Brackish Taste Modifying Effect,"[6]; 0.01 ppm, Salt 3 %",3.6
same,Brackish Taste Modifying Effect,"[6]; 0.01 ppm, Salt 5 %",3.4
same,Brackish Taste Modifying Effect,"[6]; 0.01 ppm, Salt 10 %",3.0
same,Saltiness Modifying Effect,"[6]; 0.01 ppm, sodium L-glutamate 1 %",3.6
same,Saltiness Modifying Effect,"[6]; 0.01 ppm, sodium L-glutamate 3 %",3.8
same,Saltiness Modifying Effect,"[6]; 0.01 ppm, sodium L-glutamate 5 %",3.4
same,Saltiness Modifying Effect,"[6]; 0.01 ppm, sodium L-glutamate 10 %",3.0
same,Brackish Taste Modifying Effect,"[6]; 0.10 ppm, Salt 1 %",4.0
same,Brackish Taste Modifying Effect,"[6]; 0.10 ppm, Salt 3 %",3.8
same,Brackish Taste Modifying Effect,"[6]; 0.10 ppm, Salt 5 %",3.6
same,Brackish Taste Modifying Effect,"[6]; 0.10 ppm, Salt 10 %",3.4
same,Saltiness Modifying Effect,"[6]; 0.10 ppm, sodium L-glutamate 1 %",4.0
same,Saltiness Modifying Effect,"[6]; 0.10 ppm, sodium L-glutamate 3 %",3.8
same,Saltiness Modifying Effect,"[6]; 0.10 ppm, sodium L-glutamate 5 %",3.6
same,Saltiness Modifying Effect,"[6]; 0.10 ppm, sodium L-glutamate 10 %",3.4
same,Brackish Taste Modifying Effect,"[6]; 1.00 ppm, Salt 1 %",4.4
same,Brackish Taste Modifying Effect,"[6]; 1.00 ppm, Salt 3 %",4.0
same,Brackish Taste Modifying Effect,"[6]; 1.00 ppm, Salt 5 %",4.0
same,Brackish Taste Modifying Effect,"[6]; 1.00 ppm, Salt 10 %",3.8
same,Saltiness Modifying Effect,"[6]; 1.00 ppm, sodium L-glutamate 1 %",4.4
same,Saltiness Modifying Effect,"[6]; 1.00 ppm, sodium L-glutamate 3 %",4.0
same,Saltiness Modifying Effect,"[6]; 1.00 ppm, sodium L-glutamate 5 %",4.0
same,Saltiness Modifying Effect,"[6]; 1.00 ppm, sodium L-glutamate 10 %",3.8
"COc1ccc(-c2cc(=O)c3c(OC)cc(OC)c(OC)c3o2)cc1OC [Compound 4, 3',4',5,7,8-pentamethoxyflavone]",Value of enhancing the sourness Ascending system,[1],117
same,Value of enhancing the sourness Descending system,[1],119
same,quality of taste,[7],significantly improved
same,taste of fruit juice and the sourness,[7],stronger than the control
same,"the sweetness and the savor, as sensed by all the panellers",[8],better than that of the control
"COc1ccc(-c2oc3c(OC)c(OC)cc(OC)c3c(=O)c2OC)cc1OC [Compound 7, 3,3',4',5,7,8-hexamethoxyflavone]",Value of enhancing the sourness Ascending system,[1],116
same,Value of enhancing the sourness Descending system,[1],119
same,Saltiness and Savor Modifying Effect: Saltiness,[9]; 0.01 ppm,2.2
same,Saltiness and Savor Modifying Effect: Savor,[9]; 0.01 ppm,2.2
same,Saltiness and Savor Modifying Effect: Saltiness,[9]; 0.10 ppm,2.6
same,Saltiness and Savor Modifying Effect: Savor,[9]; 0.10 ppm,2.4
same,Saltiness and Savor Modifying Effect: Saltiness,[9]; 1.00 ppm,3.4
same,Saltiness and Savor Modifying Effect: Savor,[9]; 1.00 ppm,3.0
same,"the savor, as sensed by all the panellers",[10],better than that of the control
"COc1ccc(-c2cc(=O)c3c(OC)cc(OC)cc3o2)cc1 [Compound 8, 4',5,7-trimethoxyflavone]",Value of enhancing the sourness Ascending system,[1],118
same,Value of enhancing the sourness Descending system,[1],120
same,Stimulative smell: Those who sensed difference exists,[11],7 number of people
same,Stimulative smell: Those who sensed no difference,[11],2 number of people
